From patent US8592581B2, “Trisubstituted purine derivatives” (Cyclacel Limited, priority 2007, dated 2013) come the findings set out here.

Data set [1] concerns the target CDK2/cyclin A (Homo sapiens (Human), UniProt P24941). Briefly: In-vitro recombinant kinase assay CDK2/cyclin A. The settings on record: Table 2; average of duplicate points; read-out: CDK2/Cyclin A Average IC50. In kind it is biochemical. As for the experimental part: (§1) To evaluate the in-vitro kinase potency of the compounds, they were screened against CDK 2 and CDK9. Kinase assays were performed in 96-well plates using recombinant CDK/cyclins generated at Cyclacel. Ltd Dundee, UK. CDK2 and CDK9 assays were performed in a total volume of 25 μl in assay buffer (25 mM b-glycerophosphate, 20 mM MOPS, 5 mM EGTA, 1 mM DTT and 1 mM NaVO3, pH 7.4), into which were added 2-4 μg of active enzyme with appropriate substrates (purified histone H1 for CDK2/cyclin E, and CDK2/cyclin A, biotinyl-Ahx-(YSPTSPS)4 for CDK9/cyclin T1). […] CDK2 reactions were stopped by addition of 25 μl of 75 mM phosphoric acid, followed by filtration through P81 filterplates (Whatman Polyfiltronics, Kent, UK). For CDK9, the reaction was stopped by addition of 25 μl of 75 mM phosphoric acid, then 5 μl of 10 mg/ml avidin was added to each well and further incubated for 2 min followed by filtration as per CDK2 assay. After washing 3 times with 75 mM orthophosphoric acid, plates were dried, scintillant added and incorporated radioactivity measured in a scintillation counter (TopCount, Packard Instruments, Pangbourne, Berks, UK). Compounds for kinase assay were made up as 10 mM stocks in DMSO and diluted into 10% DMSO in assay buffer.
as §1

Data set [2] has as its target CYP2C19 (Homo sapiens (Human), UniProt P33261). Nature of the data set: Cytochrome P450 substrate identification (Bactosomes) CYP2C19. In kind it is in vitro ADME. The settings on record: pH 7.4, 5 μM test compound, up to 45 min, read-out: half life in the presence of CYP2C19. As for the experimental part: cDNA expressed human CYP450 enzyme preparations co-expressed with human NADPH cytochrome P450 reductase (Bactosomes™) were supplied by Cypex Ltd. Bactosomes™ (final P450 concentration CYP1A2 100 pmol/mL, CYP2C8 50 pmol/mL, CYP2C9 25 pmol/mL, CYP2C19 100 pmol/mL, CYP2D6 50 pmol/mL and CYP3A4 25 pmol/mL), 0.1M phosphate buffer pH7.4 and test compound (final substrate concentration=5 μM; final DMSO concentration=0.25%) were pre-incubated at 37° C. prior to the addition of NADPH (final concentration=1 mM) to initiate the reaction. Incubations were also performed using control bactosomes (no P450 enzymes present) to reveal any non-enzymatic degradation. The final incubation volume was 25 μL. Compounds known to be metabolised specifically by each CYP450 isoform were used as control compounds.
Each compound was incubated singly for 0, 5, 15, 30 and 45 min with each CYP isoform. The reactions were stopped by the addition of 50 μL methanol containing internal standard at the appropriate time points. The incubation plates were centrifuged at 2500 rpm for 20 min at 4° C. to precipitate the protein. Following protein precipitation, the sample supernatants were combined in cassettes of up to four compounds and analysed using generic LC-MS/MS conditions.
The In peak area ratio (which has been corrected for any loss in the incubations with the control bactosomes) was plotted against time and the gradient of the line determined.
The elimination rate constant (k)=(−gradient)

In data set [3] the target is CDK 2 and CDK9. Briefly: In-vitro kinase potency screen against CDK 2 and CDK9 (statements in words). In kind it is biochemical. The note with it: Table 7 (not given): [A1], [A2], [A3] and [1]. The protocol:
To evaluate the in-vitro kinase potency of the compounds, they were screened against CDK 2 and CDK9. Kinase assays were performed in 96-well plates using recombinant CDK/cyclins generated at Cyclacel. Ltd Dundee, UK. CDK2 and CDK9 assays were performed in a total volume of 25 μl in assay buffer (25 mM b-glycerophosphate, 20 mM MOPS, 5 mM EGTA, 1 mM DTT and 1 mM NaVO3, pH 7.4), into which were added 2-4 μg of active enzyme with appropriate substrates (purified histone H1 for CDK2/cyclin E, and CDK2/cyclin A, biotinyl-Ahx-(YSPTSPS)4 for CDK9/cyclin T1). The reaction was initiated by addition of Mg/ATP mix (15 mM MgCl2+100 μM ATP with 30-50 kBq per well of [—^32P]-ATP) and mixtures incubated for 15 min (CDK2/cyclin E), 30 min (CDK2/cyclin A) or 45 min (CDK9/cyclin T1) as required, at 30° C. […] After washing 3 times with 75 mM orthophosphoric acid, plates were dried, scintillant added and incorporated radioactivity measured in a scintillation counter (TopCount, Packard Instruments, Pangbourne, Berks, UK). […]
To evaluate the in-vitro kinase potency of the compounds, they were screened against CDK 2 and CDK9. […] After washing 3 times with 75 mM orthophosphoric acid, plates were dried, scintillant added and incorporated radioactivity measured in a scintillation counter (TopCount, Packard Instruments, Pangbourne, Berks, UK). […]

pIC50: −log10 of the molar value.

CYP2C19, sequence (P33261 whole entry): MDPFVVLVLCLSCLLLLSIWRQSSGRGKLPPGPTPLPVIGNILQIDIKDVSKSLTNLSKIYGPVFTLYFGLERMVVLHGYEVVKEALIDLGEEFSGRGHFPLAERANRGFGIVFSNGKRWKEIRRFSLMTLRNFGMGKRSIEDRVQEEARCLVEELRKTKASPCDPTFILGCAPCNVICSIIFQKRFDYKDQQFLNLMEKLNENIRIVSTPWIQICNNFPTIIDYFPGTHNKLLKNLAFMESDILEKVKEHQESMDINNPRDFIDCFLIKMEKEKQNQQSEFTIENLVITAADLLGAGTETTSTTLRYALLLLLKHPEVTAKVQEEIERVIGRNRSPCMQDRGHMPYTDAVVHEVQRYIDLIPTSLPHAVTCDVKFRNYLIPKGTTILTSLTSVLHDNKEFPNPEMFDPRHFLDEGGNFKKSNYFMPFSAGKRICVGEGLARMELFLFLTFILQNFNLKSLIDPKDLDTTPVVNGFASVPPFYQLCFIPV

In the case of `CC[C@H](Nc1nc(NCc2cnc(C)cc2C)c2ncn(C(C)C)c2n1)[C@@H](C)O` [Compound [1]], the pIC50 in data set [1] was 7.05. The half-life (as a rule, the time needed for the level to fall by half in the phase considered) at 5 μM in data set [2] was above 45 min. In data set [3], the “kinase inhibitor potency ranking (in words)” value is on record as “most potent kinase inhibitors”.
